# Experimental data: PMC12056667 (Chemical Science, 2025)
# Key:
# [1] = test system: Acinetobacter baumannii NT5-1 – tet(X5); experiment: microbe, parasite or virus in culture; assay type: cell-based; conditions: for MIC: Acinetobacter baumannii, read-out: Tet(X) Inhibitor MIC; for Combination (Antibiotic/Inhibitor) MICs: antibiotic / Combination (Antibiotic/Inhibitor) MICs: inhibitor: lowest FICI
# [2] = test system: Escherichia coli T-24a – tet(X4); experiment: microbe, parasite or virus in culture; assay type: cell-based; conditions: for MIC: Escherichia coli, read-out: Tet(X) Inhibitor MIC, alone; for Combination (Antibiotic/Inhibitor) MICs: antibiotic / Combination (Antibiotic/Inhibitor) MICs: inhibitor: lowest FICI
# [3] = test system: Salmonella enterica T-2a – tet(X4); experiment: microbe, parasite or virus in culture; assay type: cell-based; conditions: for MIC: Salmonella enterica, read-out: Tet(X) Inhibitor MIC; for Combination (Antibiotic/Inhibitor) MICs: antibiotic / Combination (Antibiotic/Inhibitor) MICs: inhibitor: lowest FICI
# Procedure, shortened: (§1)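 Checkerboards in CAMHB crossed seven 2-fold inhibitor dilutions with ten 2-fold tigecycline dilutions, inoculum about 1.5 × 10^6 cfu mL^−1 stock, 37 °C for 18 h, growth read visually with or without resazurin. FICI = FICA + FICB, with synergy <0.5, […] and antagonism >4.0. Off-scale MICs were set at the borderline value.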
# [4] = test system: Acinetobacter spp. NT3-1 – tet(X3); experiment: microbe, parasite or virus in culture; assay type: cell-based; conditions: for MIC: Acinetobacter, read-out: Tet(X) Inhibitor MIC, alone; for Combination (Antibiotic/Inhibitor) MICs: antibiotic / Combination (Antibiotic/Inhibitor) MICs: inhibitor: lowest FICI
# Procedure, shortened: as §1
# Tet(X4) = Tet(X4) (Escherichia coli, UniProt A0A3T0V9Y5); experiment: biochemical; conditions: 20 μM tigecycline, 50 nM Tet(X4), 100 μM NADPH, 5 mM MgCl2, 1 μM FAD, 100 mM TAPS pH 8.5; read-out: IC50, UPLC assay
# Procedure, shortened: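 Endpoint turnover assay: 100 nM Tet(X4) with […] and 10 mM MgCl2 in 100 mM TAPS pH 8.5, preincubated with inhibitor 15 min at 30 °C, then 40 μM tigecycline plus 200 μM NADPH added […] for 20 min at 30 °C.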
# [5] = inhibitor in combination with tigecycline
# [6] = tigecycline in combination with the inhibitor
compound,measurement,setting,value
[H]/N=C(/NCCCCC)N/N=C/c1c[nH]c2ccc(OC)cc12 [Tegaserod],MIC,[1],32 µg/mL
same,Combination (Antibiotic/Inhibitor) MICs: antibiotic,[1]; doxycycline with tegaserod,16 µg/mL
same,Combination (Antibiotic/Inhibitor) MICs: inhibitor,[1]; [5],16 µg/mL
same,Combination (Antibiotic/Inhibitor) MICs: inhibitor,[1]; tegaserod with doxycycline,4 µg/mL
same,Combination (Antibiotic/Inhibitor) MICs: inhibitor,[1]; tegaserod with tetracycline,8 µg/mL
same,Combination (Antibiotic/Inhibitor) MICs: antibiotic,[1]; tetracycline with tegaserod,128 µg/mL
same,Combination (Antibiotic/Inhibitor) MICs: antibiotic,[1]; [6],1 µg/mL
same,FICI,[1]; with doxycycline,0.6
same,Outcome,[1]; with doxycycline,indifferent (indifferent (0.5-4.0))
same,FICI,[1]; with tetracycline,1.3
same,Outcome,[1]; with tetracycline,indifferent (indifferent (0.5-4.0))
same,FICI,[1]; with tigecycline,0.6
same,Outcome,[1]; with tigecycline,indifferent (indifferent (0.5-4.0))
same,MIC,[2]; E. coli T-24a,16 µg/mL
same,Tet(X) inhibitor MIC,"[2]; alone, E. coli T-24a",32 µg/mL
same,Combination (Antibiotic/Inhibitor) MICs: antibiotic,[2]; doxycycline with tegaserod,4 µg/mL
same,Combination (Antibiotic/Inhibitor) MICs: inhibitor,[2]; [5],8 µg/mL
same,Combination (Antibiotic/Inhibitor) MICs: inhibitor,[2]; tegaserod with doxycycline,16 µg/mL
same,Combination (Antibiotic/Inhibitor) MICs: inhibitor,[2]; tegaserod with tetracycline,16 µg/mL
same,Combination (Antibiotic/Inhibitor) MICs: antibiotic,[2]; tetracycline with tegaserod,32 µg/mL
same,Combination (Antibiotic/Inhibitor) MICs: antibiotic,[2]; [6],4 µg/mL
same,FICI,[2]; with doxycycline,0.6
same,Outcome,[2]; with doxycycline,indifferent (indifferent (0.5-4.0))
same,FICI,[2]; with tetracycline,0.8
same,Outcome,[2]; with tetracycline,indifferent (indifferent (0.5-4.0))
same,FICI,[2]; with tigecycline,0.8
same,Outcome,[2]; with tigecycline,indifferent (indifferent (0.5-4.0))
same,MIC,[3],32 µg/mL
same,Combination (Antibiotic/Inhibitor) MICs: antibiotic,[3]; doxycycline with tegaserod,8 µg/mL
same,Combination (Antibiotic/Inhibitor) MICs: inhibitor,[3]; [5],8 µg/mL
same,Combination (Antibiotic/Inhibitor) MICs: inhibitor,[3]; tegaserod with doxycycline,16 µg/mL
same,Combination (Antibiotic/Inhibitor) MICs: inhibitor,[3]; tegaserod with tetracycline,16 µg/mL
same,Combination (Antibiotic/Inhibitor) MICs: antibiotic,[3]; tetracycline with tegaserod,32 µg/mL
same,Combination (Antibiotic/Inhibitor) MICs: antibiotic,[3]; [6],8 µg/mL
same,FICI,[3]; with doxycycline,0.8
same,Outcome,[3]; with doxycycline,indifferent (indifferent (0.5-4.0))
same,FICI,[3]; with tetracycline,0.8
same,Outcome,[3]; with tetracycline,indifferent (indifferent (0.5-4.0))
same,FICI,[3]; with tigecycline,0.5
same,Outcome,[3]; with tigecycline,indifferent (indifferent (0.5-4.0))
same,MIC,[4]; Acinetobacter spp. NT3-1,4 µg/mL
same,Tet(X) inhibitor MIC,"[4]; alone, Acinetobacter spp. NT3-1",8 µg/mL
same,Combination (Antibiotic/Inhibitor) MICs: antibiotic,[4]; doxycycline with tegaserod,4 µg/mL
same,Combination (Antibiotic/Inhibitor) MICs: inhibitor,[4]; [5],2 µg/mL
same,Combination (Antibiotic/Inhibitor) MICs: inhibitor,[4]; tegaserod with doxycycline,4 µg/mL
same,Combination (Antibiotic/Inhibitor) MICs: inhibitor,[4]; tegaserod with tetracycline,4 µg/mL
same,Combination (Antibiotic/Inhibitor) MICs: antibiotic,[4]; tetracycline with tegaserod,16 µg/mL
same,Combination (Antibiotic/Inhibitor) MICs: antibiotic,[4]; [6],0.5 µg/mL
same,FICI,[4]; with doxycycline,1.0
same,Outcome,[4]; with doxycycline,indifferent (indifferent (0.5-4.0))
same,FICI,[4]; with tetracycline,0.8
same,Outcome,[4]; with tetracycline,indifferent (indifferent (0.5-4.0))
same,FICI,[4]; with tigecycline,0.6
same,Outcome,[4]; with tigecycline,indifferent (indifferent (0.5-4.0))
same,IC50,Tet(X4),25.9 ± 2.4 µM
CN1CCN(CCCN2c3ccccc3Sc3ccc(C(F)(F)F)cc32)CC1 [Trifluoperazine],MIC,[1],128 µg/mL
same,Combination (Antibiotic/Inhibitor) MICs: inhibitor,[1]; [5],64 µg/mL
same,Combination (Antibiotic/Inhibitor) MICs: antibiotic,[1]; [6],1 µg/mL
same,FICI,[1]; with tigecycline,0.6
same,Outcome,[1]; with tigecycline,indifferent (indifferent (0.5-4.0))
same,MIC,[2]; E. coli T-24a,256 µg/mL
same,Combination (Antibiotic/Inhibitor) MICs: inhibitor,[2]; [5],32 µg/mL
same,Combination (Antibiotic/Inhibitor) MICs: antibiotic,[2]; [6],8 µg/mL
same,FICI,[2]; with tigecycline,0.6
same,Outcome,[2]; with tigecycline,indifferent (indifferent (0.5-4.0))
same,MIC,[3],> 128 µg/mL
same,Combination (Antibiotic/Inhibitor) MICs: inhibitor,[3]; [5],64 µg/mL
same,Combination (Antibiotic/Inhibitor) MICs: antibiotic,[3]; [6],16 µg/mL
same,FICI,[3]; with tigecycline,1
same,Outcome,[3]; with tigecycline,indifferent (indifferent (0.5-4.0))
same,MIC,[4]; Acinetobacter spp. NT3-1,16 µg/mL
same,Combination (Antibiotic/Inhibitor) MICs: inhibitor,[4]; [5],16 µg/mL
same,Combination (Antibiotic/Inhibitor) MICs: antibiotic,[4]; [6],4 µg/mL
same,FICI,[4]; with tigecycline,2
same,Outcome,[4]; with tigecycline,indifferent (indifferent (0.5-4.0))
same,IC50,Tet(X4),83.8 ± 21.4 µM
